Source: PMC10434001, “Glycosylated, Lipid-Binding, CDR-Like Domains of SARS-CoV-2 ORF8 Indicate Unique Sites of Immune Regulation” (Microbiology Spectrum, 2023)

How the values were obtained:
[1] = after deglycosylation (PNGase F); observation during the experiments
[2] = system: human immune monocytes (from PBMC); assay: Binding of ORF8 protein forms to immune monocytes (flow cytometry); format: cell-based
[3] = system: deglycosylated ORF8 binding to immune monocytes; assay: Immune cell binding assay: peptide inhibition of deglycosylated ORF8 binding to monocytes; format: cell-based; settings: 50 μM peptide with 5 μM FITC-labeled deglycosylated ORF8; human monocytes; 4 h at 37°C; flow cytometry; Fig. 6E and F
[4] = system: glycosylated ORF8 binding to immune monocytes; assay: Immune cell binding assay: peptide inhibition of glycosylated ORF8 binding to monocytes; format: cell-based; settings: 50 μM peptide with 5 μM FITC-labeled ORF8; human monocytes; 4 h at 37°C; flow cytometry; Fig. 6C and D

Substance: glycosylated ORF8: recombinant SARS-CoV-2 ORF8 (residues 16–121, MBP/His tag) expressed in 293F cells, glycosylated at N78
- solubility of ORF8 [1]: deteriorated
- binding to immune cells ([2]; FITC-labeled ORF8, 5 μM, human monocytes, flow cytometry, Fig. 6A and B): weak binding

Substance: TNERLCVRFE [P3, 10-residue peptide derived from IL17RA (aa89-98) designed against ORF8]
- inhibition of deglycosylated ORF8 binding to immune monocytes [3]: significantly inhibited
- inhibition of glycosylated ORF8 binding to immune cells [4]: no significant inhibitory effect

Substance: deglycosylated ORF8: ORF8 protein treated with PNGase F enzyme overnight
- binding to immune cells relative to glycosylated ORF8 ([2]; FITC-labeled ORF8, human monocytes, flow cytometry, Fig. 6A and B): 2 fold

Substance: delipidated ORF8: ORF8 protein treated with 0.5% Triton X-100 overnight
- binding to human immune cells compared with ORF8 with lipid modifications ([2]; co-incubated with human PBMC cells, lipid removed with 0.5% Triton X-100 overnight, Fig. 4G and H): higher percentage of binding
